Assay results: patent publication US7495027B2, “3-aryl-4-hydroxyfuranone compounds and the human and animal health use thereof” (Wyeth, priority 2003, dated 2009)

Tested on: C. elegans
Assay: Efficacy against nematodes (C. elegans motility rating)
Design: key: 0: no effect; 7: reduced movement in 24 h; 8: dead in 24 h; 9: dead in 4 h
Details: observations at 4 h and 24 h postimmersion
Protocol: Evaluation of the Efficacy of a 3-Aryl-4-Hydroxyfuranone Against Nematodes
In this evaluation, cultures of C. elegans are maintained on E. coli lawns on Nematode Growth Agar at 20° C. New cultures are established twice a week. Nematodes for testing are rinsed from plates using M9 Buffer. […] One μL of this solution is added to each well of a 96 well plate. A mixture of C. elegans in M9 Buffer (100 μL) is added to each well, such that approximately 50 worms of mixed stages (L1, L2, L3, L4 and adults) are present in each well at a final concentration of 100 ppm, 150 ppm or […] of test compound. Concentration of test compound may be varied by gradient dilution of the stock DMSO solution. Observations are made under a dissecting microscope at 4 h and 24 h postimmersion. A rating is based on the motility of the larvae and adults, using the rating system shown below.

Work on O=C1O/C(=C\c2ccc(-c3ccccc3CO)cc2)C(O)=C1c1ccccc1CO yielded a Rating (dose 150 ppm) of 0.
For Cc1cccc(C2=C(O)C(=Cc3cc(C(F)(F)F)ccc3Cl)OC2=O)c1C, the Rating (dose 200 μM) was 0.
Cc1ccc(C)c(C2=C(O)/C(=C/c3cc(C(F)(F)F)ccc3Cl)OC2=O)c1 gave a Rating (dose 200 μM) of 0.
With COc1ccccc1-c1ccc(C=C2OC(=O)C(c3cc(Cl)cc(Cl)c3)=C2O)cc1C the Rating (dose 150 ppm) was 0.
Compound COc1cc(/C=C2\OC(=O)C(c3cc(Cl)cc(Cl)c3)=C2O)ccc1-c1ccccc1C has a Rating (dose 150 ppm) of 9.
O=C1O/C(=C\c2ccc(-c3cccc(C(F)(F)F)c3)cc2)C(O)=C1c1cccc(C(F)(F)F)c1 was tested, and the Rating (dose 150 ppm) was 8.
Compound O=C1OC(=Cc2ccc(-c3cccc(CO)c3)cc2)C(O)=C1c1cccc(CO)c1 has a Rating (dose 150 ppm) of 0.
COc1ccc(/C=C2\OC(=O)C(c3cccc(Cl)c3)=C2O)c2ccccc12 gave a Rating (dose 150 ppm) of 9.
In the case of O=C1O/C(=C\c2ccc(N3CCOCC3)c3ccccc23)C(O)=C1c1cccc(Cl)c1, the Rating (dose 150 ppm) is reported as 0.
CCOC(=O)N1CCN(c2ccc(/C=C3\OC(=O)C(c4cccc(Cl)c4)=C3O)cc2F)CC1 was tested, and the Rating (dose 150 ppm) was 7.
Cc1cc(/C=C2\OC(=O)C(c3cccc(Cl)c3)=C2O)ccc1-c1ccccc1C(F)(F)F gave a Rating (dose 150 ppm) of 9.
Cc1cc(/C=C2\OC(=O)C(c3cccc(Cl)c3)=C2O)ccc1-c1ccccc1Cl showed a Rating (dose 150 ppm) of 9.
Work on COc1ccccc1-c1ccc(C=C2OC(=O)C(c3cccc(Cl)c3)=C2O)cc1C yielded a Rating (dose 150 ppm) of 7.
COc1cc(/C=C2\OC(=O)C(c3cccc(Cl)c3)=C2O)ccc1-c1ccccc1C(F)(F)F showed a Rating (dose 150 ppm) of 9.
Work on COc1cc(/C=C2\OC(=O)C(c3cccc(Cl)c3)=C2O)ccc1-c1ccccc1Cl yielded a Rating (dose 150 ppm) of 8.
Work on O=C1O/C(=C\c2cc(C(F)(F)F)ccc2Cl)C(O)=C1c1ccc(N2CCOCC2)c(F)c1 yielded a Rating (dose 150 ppm) of 0.
Work on CC(=O)Nc1cccc(C2=C(O)C(=Cc3ccc(-c4cccc(NC(C)=O)c4)cc3)OC2=O)c1 yielded a Rating (dose 150 ppm) of 0.
CC(C)c1cccc(C2=C(O)/C(=C/c3cc(C(F)(F)F)ccc3Cl)OC2=O)c1 gave a Rating (dose 200 μM) of 0.
Cc1ccc(C2=C(O)C(=Cc3cccc(C(F)(F)F)c3Cl)OC2=O)cc1C was tested, and the Rating (dose 200 μM) was 9.
Cc1ccc(C2=C(O)/C(=C/c3cc(C(F)(F)F)ccc3Cl)OC2=O)cc1C showed a Rating (dose 200 μM) of 0.
With Cc1cc(C)cc(C2=C(O)/C(=C/c3cc(C(F)(F)F)ccc3Cl)OC2=O)c1 the Rating (dose 200 μM) was 0.
With O=C1OC(=Cc2ccc(-c3cc(C(F)(F)F)cc(C(F)(F)F)c3)cc2)C(O)=C1c1cc(C(F)(F)F)cc(C(F)(F)F)c1 the Rating (dose 150 ppm) was 0.
CN(C)c1ccc(C=C2OC(=O)C(c3cc(Cl)cc(Cl)c3)=C2O)c2ccccc12 was tested, and the Rating (dose 150 ppm) was 0.
COc1ccc(/C=C2\OC(=O)C(c3cc(Cl)cc(Cl)c3)=C2O)c2ccccc12 was tested, and the Rating (dose 150 ppm) was 0.
O=C1O/C(=C\c2ccc(N3CCOCC3)c3ccccc23)C(O)=C1c1cc(Cl)cc(Cl)c1 gave a Rating (dose 150 ppm) of 0.
O=C1OC(=Cc2ccccc2OCc2ccccc2)C(O)=C1c1cc(Cl)cc(Cl)c1 gave a Rating (dose 150 ppm) of 0.
For O=C1O/C(=C\c2ccc(N3CCN(c4ccccc4Cl)CC3)c(Cl)c2)C(O)=C1c1cc(Cl)cc(Cl)c1, the Rating (dose 150 ppm) was 0.
CCOC(=O)N1CCN(c2ccc(C=C3OC(=O)C(c4cc(Cl)cc(Cl)c4)=C3O)cc2F)CC1 showed a Rating (dose 150 ppm) of 0.
For CCOC(=O)CNC(=O)CNC(=O)c1cccc(/C=C2\OC(=O)C(c3cc(Cl)cc(Cl)c3)=C2O)c1, the Rating (dose 150 ppm) was 0.
With O=C1OC(=Cc2cccc(OCc3ccccc3)c2)C(O)=C1c1cc(Cl)cc(Cl)c1 the Rating (dose 150 ppm) was 0.
For Cc1cc(/C=C2\OC(=O)C(c3cc(Cl)cc(Cl)c3)=C2O)ccc1-c1ccccc1Cl, the Rating (dose 150 ppm) was 7.
For COc1cc(/C=C2\OC(=O)C(c3cc(Cl)cc(Cl)c3)=C2O)ccc1-c1ccccc1C(F)(F)F, the Rating (dose 150 ppm) was 0.
Compound Cc1ccccc1-c1ccc(C=C2OC(=O)C(c3cc(Cl)cc(Cl)c3)=C2O)cc1C has a Rating (dose 150 ppm) of 0.
In the case of COc1ccccc1-c1ccc(/C=C2\OC(=O)C(c3cc(Cl)cc(Cl)c3)=C2O)cc1OC, the Rating (dose 150 ppm) is reported as 0.
O=C1O/C(=C\c2ccc(-c3cc(Cl)cc(Cl)c3)cc2)C(O)=C1c1cc(Cl)cc(Cl)c1 gave a Rating (dose 150 ppm) of 7.
Work on CN(C)c1ccc(/C=C2\OC(=O)C(c3ccc(C(F)(F)F)cc3)=C2O)c2ccccc12 yielded a Rating (dose 150 ppm) of 0.
Compound Cc1ccc(C2=C(O)/C(=C/c3ccc(-c4ccc(C)cc4)cc3)OC2=O)cc1 has a Rating (dose 150 ppm) of 0.
With N#Cc1ccc(C2=C(O)C(=Cc3ccc(-c4ccc(Cl)cc4)cc3)OC2=O)cc1 the Rating (dose 150 ppm) was 9.
In the case of CN(C)c1ccc(/C=C2\OC(=O)C(c3ccc(Cl)cc3)=C2O)c2ccccc12, the Rating (dose 150 ppm) is reported as 0.
Work on CCOc1ccc(-c2ccc(C3=C(O)/C(=C/c4cc(C(F)(F)F)ccc4F)OC3=O)cc2)cc1 yielded a Rating (dose 200 μM) of 9.
With CCCCc1ccc(-c2ccc(C3=C(O)C(=Cc4cccc(C(F)(F)F)c4Cl)OC3=O)cc2)cc1 the Rating (dose 200 μM) was 9.
In the case of CCCCc1ccc(-c2ccc(C3=C(O)/C(=C/c4cc(C(F)(F)F)ccc4F)OC3=O)cc2)cc1, the Rating (dose 200 μM) is reported as 0.
Work on CCCCc1ccc(-c2ccc(C3=C(O)C(=Cc4cc(F)cc(C(F)(F)F)c4)OC3=O)cc2)cc1 yielded a Rating (dose 200 μM) of 9.
For CCCc1ccc(-c2ccc(C3=C(O)/C(=C/c4cccc(C(F)(F)F)c4Cl)OC3=O)cc2)cc1, the Rating (dose 200 μM) was 9.
CCCc1ccc(-c2ccc(C3=C(O)/C(=C/c4cc(C(F)(F)F)ccc4Cl)OC3=O)cc2)cc1 showed a Rating (dose 200 μM) of 0.
Work on CCCc1ccc(-c2ccc(C3=C(O)/C(=C/c4cc(C(F)(F)F)ccc4F)OC3=O)cc2)cc1 yielded a Rating (dose 200 μM) of 9.
CC(C)(C)c1ccc(-c2ccc(C3=C(O)/C(=C/c4cccc(C(F)(F)F)c4)OC3=O)cc2)cc1 showed a Rating (dose 200 μM) of 0.
Work on CCc1ccc(C2=C(O)/C(=C/c3cc(C(F)(F)F)ccc3Cl)OC2=O)cc1 yielded a Rating (dose 200 μM) of 9.
CC(C)c1ccc(C2=C(O)/C(=C/c3cccc(C(F)(F)F)c3Cl)OC2=O)cc1 showed a Rating (dose 200 μM) of 9.
In the case of CC(C)(C)c1ccc(-c2ccc(C3=C(O)/C(=C/c4ccc(-c5ccccc5)cc4)OC3=O)cc2)cc1, the Rating (dose 150 ppm) is reported as 0.
With O=C1OC(=Cc2ccc(Cl)c(Cl)c2)C(O)=C1c1ccc(Cl)s1 the Rating (dose 100 ppm) was 9.
O=C1O/C(=C\c2ccc(F)c(F)c2)C(O)=C1c1ccc(Cl)s1 showed a Rating (dose 100 ppm) of 9.
Work on O=C1O/C(=C\c2ccc(C(F)(F)F)cc2)C(O)=C1c1ccc(Cl)s1 yielded a Rating (dose 100 ppm) of 9.
In the case of N#Cc1ccc(/C=C2\OC(=O)C(c3ccc(Cl)s3)=C2O)cc1, the Rating (dose 100 ppm) is reported as 9.
O=C1O/C(=C\c2ccc(Cl)cc2)C(O)=C1c1ccc(Cl)s1 showed a Rating (dose 100 ppm) of 9.
For O=C1O/C(=C\c2ccc(F)c(C(F)(F)F)c2)C(O)=C1c1ccc(Cl)s1, the Rating (dose 100 ppm) was 9.
In the case of O=C1O/C(=C\c2ccc(F)cc2)C(O)=C1c1ccc(Cl)s1, the Rating (dose 100 ppm) is reported as 9.
For O=C1O/C(=C\c2ccc(OC(F)(F)F)cc2)C(O)=C1c1ccc(Cl)s1, the Rating (dose 100 ppm) was 9.
O=C1O/C(=C\c2ccc(OC(F)F)cc2)C(O)=C1c1ccc(Cl)s1 was tested, and the Rating (dose 100 ppm) was 9.
For O=C1O/C(=C\c2ccc(OCC3CC3)cc2)C(O)=C1c1ccc(Cl)s1, the Rating (dose 100 ppm) was 9.
Work on O=C1OC(=Cc2ccc(Cl)s2)C(O)=C1c1ccc(Cl)s1 yielded a Rating (dose 100 ppm) of 9.
O=C1OC(=Cc2ccc(-c3ccc(Cl)cc3)cc2)C(O)=C1c1ccc(C(F)(F)F)cc1 (mixture of isomers) gave a Rating (dose 100 ppm) of 9.
For N#Cc1ccc(C2=C(O)C(=Cc3ccc(-c4ccc(C(F)(F)F)cc4)cc3)OC2=O)cc1 (mixture of isomers), the Rating (dose 100 ppm) was 9.
In the case of COc1ccc(-n2ncc(C=C3OC(=O)C(c4ccc(OC(F)(F)F)cc4)=C3O)c2C)cc1 (mixture of isomers), the Rating (dose 100 ppm) is reported as 0.
For O=C1OC(=Cc2cccnc2Cl)C(O)=C1c1ccc(OC(F)(F)F)cc1 (mixture of isomers), the Rating (dose 100 ppm) was 9.
Cc1nc(C=C2OC(=O)C(c3ccc(OC(F)(F)F)cc3)=C2O)c[nH]1 (mixture of isomers) was tested, and the Rating (dose 100 ppm) was 0.
O=C1OC(=Cc2c[nH]c(-c3ccccc3)n2)C(O)=C1c1ccc(OC(F)(F)F)cc1 (mixture of isomers) showed a Rating (dose 100 ppm) of 0.
Compound O=C1OC(=Cc2ccc3c(c2)OC(F)(F)O3)C(O)=C1c1ccc(OC(F)(F)F)cc1 (mixture of isomers) has a Rating (dose 100 ppm) of 9.
With O=C1OC(=Cc2ccncc2Cl)C(O)=C1c1ccc(OC(F)(F)F)cc1 (mixture of isomers) the Rating (dose 100 ppm) was 9.
O=C1OC(=Cc2ccc(OC(F)(F)C(F)F)cc2)C(O)=C1c1ccc(OC(F)(F)F)cc1 (mixture of isomers) showed a Rating (dose 100 ppm) of 9.
O=C1OC(=Cc2cnccc2-c2cccc(Cl)c2)C(O)=C1c1ccc(OC(F)(F)F)cc1 (mixture of isomers) showed a Rating (dose 100 ppm) of 9.
Work on O=C1OC(=Cc2cnccc2-c2ccc(Cl)cc2)C(O)=C1c1ccc(OC(F)(F)F)cc1 (mixture of isomers) yielded a Rating (dose 100 ppm) of 9.
O=C1OC(=Cc2cnccc2-c2ccc(OC(F)(F)F)cc2)C(O)=C1c1ccc(OC(F)(F)F)cc1 (mixture of isomers) showed a Rating (dose 100 ppm) of 9.
Compound O=C1OC(=Cc2ccc(-c3ccc(Cl)s3)cc2)C(O)=C1c1ccc(OC(F)(F)F)cc1 (mixture of isomers) has a Rating (dose 100 ppm) of 9.
Compound O=C1OC(=Cc2cnccc2-c2ccc(Cl)s2)C(O)=C1c1ccc(OC(F)(F)F)cc1 (mixture of isomers) has a Rating (dose 100 ppm) of 9.
Work on Cn1cc(Cl)c(C=C2OC(=O)C(c3ccc(OC(F)(F)F)cc3)=C2O)n1 (mixture of isomers) yielded a Rating (dose 100 ppm) of 0.
O=C1OC(=Cc2ccc(OCC3CC3)cc2)C(O)=C1c1ccc(OC(F)(F)F)cc1 (mixture of isomers) gave a Rating (dose 100 ppm) of 0.
For CCCOc1ccc(C=C2OC(=O)C(c3ccc(OC(F)(F)F)cc3)=C2O)cc1 (mixture of isomers), the Rating (dose 100 ppm) was 0.
O=C1OC(=Cc2ccc(-c3ccc(F)c(C(F)(F)F)c3)o2)C(O)=C1c1ccc(OC(F)(F)F)cc1 (mixture of isomers) showed a Rating (dose 100 ppm) of 9.
Cc1nn(C)c(Cl)c1C=C1OC(=O)C(c2ccc(OC(F)(F)F)cc2)=C1O (mixture of isomers) was tested, and the Rating (dose 100 ppm) was 0.
Cc1ccccc1-n1ncc(C=C2OC(=O)C(c3ccc(OC(F)(F)F)cc3)=C2O)c1C (mixture of isomers) was tested, and the Rating (dose 100 ppm) was 0.
